Measured values taken from publication PMC3974779, “Pterostilbene-Isothiocyanate Conjugate Suppresses Growth of Prostate Cancer Cells Irrespective of Androgen Receptor Status” (PLoS ONE, 2014).

Tests used:
CHO cells = assay: MTT cytotoxicity assay; format: cell-based; conditions: Cricetulus griseus, CHO noncancer cells, 24 h exposure, read-out: IC50 value (50% growth inhibition)
Method: (§1) MTT assay was carried out as described previously. In brief, 5×10^3 cells in 200 μl of medium were seeded in 96-well plates (Griener, Germany). After 24 h, the cells were treated with various concentrations (0.1, 1, 10, 100 and 1000 μM) of RESV, PTER and conjugate. The control cells were treated with 0.1% DMSO (vehicle control). The cultured cells were assayed after 24 h by adding 20 μl of 5 mg/ml MTT followed by incubating at 37°C for 4 h. The MTT containing media was then aspirated and 200 μl DMSO (Himedia, Mumbai, India) was added to dissolve the formazone crystals. The optical density (OD) was measured at 570 nm using ELISA plate reader (Fluostar optima, BMG Labtech, Germany). The percentage inhibition was calculated as: [drawing 1]
(§2) The dose response curve and IC50 values were obtained by nonlinear regression analysis [non-linear regression (sigmoidal dose response with variable slope)] using Graph Pad Prism, version 5.02 software (Graph Pad Software Inc., CA, USA).

COS-1 cells = assay: MTT cytotoxicity assay; format: cell-based; conditions: Chlorocebus aethiops, COS-1 noncancer cells, 24 h exposure, read-out: IC50 value (50% growth inhibition)
Method: as §1, §2

LNCaP cells = assay: MTT cytotoxicity assay; format: cell-based; conditions: Homo sapiens, 24 h, 24 h exposure, mean ± SEM, read-out: IC50 value (50% growth inhibition)
Method: as §1, §2

PC-3 cells = assay: MTT cytotoxicity assay; format: cell-based; conditions: Homo sapiens; PC-3, MTT, 24 h exposure, mean ± SEM; read-out: IC50 value (50% growth inhibition)
Method: as §1, §2

[1] = system: cleaved caspase-3 in LNCaP cells; assay: Akt/ERK silencing or inhibition, cleaved caspase-3 immunoblot; format: cell-based, human
Method: The siRNAs against human Akt and ERK and control siRNA were purchased commercially from Santa Cruz Biotechnology (USA). The LNCaP and PC-3 PCa cells were transfected with siRNAs (at a final concentration of 100 nM) using polyfect transfection reagent (Qiagen, CA, USA) according to manufacturer’s instructions. After 24 h of transfection, the cells were washed properly and replaced with fresh medium. The cells were then treated with 20 μM conjugate for 24 h, and finally protein lysates were prepared on completion of treatment. The levels of p-Akt, p-ERK and cleaved caspase-3 expressions were detected by Western blot analysis.
Figure 5 Differential role of PI3K/Akt and MAPK/ERK pathways in conjugate induced apoptosis of prostate cancer cells. Effects of siRNA mediated silencing of Akt and ERK on conjugate-induced apoptosis of (A) PC-3 and (B) LNCaP cells. LNCaP and PC-3 PCa cells were transfected with siRNAs (at a final concentration of 100 nM) using polyfect transfection reagent. After 24 h of transfection the cells were treated with 20 μM conjugate and allowed to grow for another 24 h. The cell lysates were prepared and the level of p-Akt, p-ERK and cleaved caspase-3 proteins were detected by immunoblot analysis. The histogram on the right panel of each figure represents densitometric analyses of the image data and expressed as percent of control where the results are mean ± SEM of three independent experiments. *and # represents statistically significant difference with respect to control and 20 μM conjugate treated groups respectively at p<0.05.
Supplementary file pone.0093335.s001.tif: Figure S1 (A) Effects of the Akt Kinase inhibitor (A6730) and/or the ERK inhibitor (PD98059) on the conjugate-induced apoptosis of PC-3 and (B) LNCaP cells. The cells were pre-treated with A6730 (5 μM) and/or PD98059 (20 μM) for 1 h before the addition of 20 μM conjugate for additional 24 h (total inhibitor exposure time was 25 h). The collected cell lysates were then immunoblotted using respective antibodies. The histogram on the right panel of each figure represents densitometric analyses of the image data and expressed as percent of control where the results are mean ± SEM of three independent experiments. *and # represents statistically significant difference with respect to control and 20 μΜ conjugate treated groups respectively at p<0.05. (TIF) Click here for additional data file.

GRIP-1 in LNCaP cells = assay: Immunoblot of AR co-activators; format: cell-based, human
Method: (§3) The whole-cell lysates were prepared as described previously in immunoprecipitation (IP) buffer containing 50 mM Tris-HCl (pH 8.0), 150 mM NaCl, 5 mM EDTA, and 1% Triton X-100. Protein aliquots of 500 μg were then incubated overnight at 4°C using 2 μg of antibody directed against AR. The Protein A-Cl Agarose beads were then added and further incubated for 6 h at 4°C. The immunoprecipitates were washed four times with the IP buffer and the immunocomplexes were recovered by boiling in SDS sample buffer. Finally the western blot was carried out using anti-AR, anti-SRC-1 and anti-GRIP-1 antibodies (Santa Cruz, CA, USA). For western blot analysis, the cell lysates were prepared after harvesting them in lysis buffer. About 40 μg of total protein was electrophoresed by 12% SDS-PAGE, and the western blotting was carried out using standard protocol. In brief, the analyzed proteins were transferred to nylon membranes. The blots were then blocked with TBST buffer (20 mM Tris-Cl, pH 7.5, 150 mM sodium chloride, 0.05% Tween-20) containing 5% skim milk powder. They were then washed with TBST buffer and incubated overnight at 4°C with the same buffer containing appropriate amounts of primary antibodies: caspase-3, Bax, Bcl-2, Akt, p-Akt, ERK, p-ERK, AR, SRC-1, GRIP-1 (1∶500) and β-actin (1∶1000). The blots were then washed and incubated with anti-rabbit secondary antibody (1∶20,000) conjugated with horseradish peroxidase (HRP). Color development was performed in the dark by using an ECL kit (Amersham, GE Healthcare, Buckinghamshire, UK). The developed blots were subjected to densitometric analysis by ImageJ 1.43 software (NIH, USA) using β-actin as internal control.

SRC-1 in LNCaP cells = assay: Immunoblot of AR co-activators; format: cell-based, human
Method: as §3

## COc1cc(/C=C/c2ccc(O)c(/C=N/NC(N)=S)c2)cc(OC)c1 [conjugate, Pterostilbene-isothiocyanate conjugate]
CHO cells
  IC50: > 100 µM
COS-1 cells
  IC50: > 100 µM
LNCaP cells
  IC50: 40 ± 1.12 µM
PC-3 cells
  IC50: 45 ± 1.5 µM
[1]; Akt-silenced LNCaP cells, 20 μM conjugate
  increase in cleaved caspase-3 protein level: ~4.5 folds
[1]; ERK-silenced LNCaP cells, 20 μM conjugate
  increase in cleaved caspase-3 level: 6.5 folds
[1]; LNCaP, 20 μM conjugate
  cleaved caspase-3 in ERK-silenced cells plus conjugate relative to conjugate alone: about 1.4 times
[1]; LNCaP, A6730 (5 μM) combined with 20 μM conjugate
  level of cleaved caspase-3 vs conjugate alone: did not show any significant increase
[1]; LNCaP, co-treatment with PD98059 (20 μM) and 20 μM conjugate
  level of cleaved caspase-3 vs conjugate alone: significantly increased
GRIP-1 in LNCaP cells; 10 μM
  reduction of GRIP-1 level: 1.7 folds
GRIP-1 in LNCaP cells; 20 μM
  reduction of GRIP-1 level: 2.6 folds
SRC-1 in LNCaP cells; 10 μM
  decrease in expression of SRC-1 protein: 1.4 folds
SRC-1 in LNCaP cells; 20 μM
  decrease in expression of SRC-1 protein: 2.6 folds
